Measured values from US10154970B2, “Methods for immunomodulation of cancer and infectious disease therapy” (The Regents of the University of California, priority 2014, dated 2018).

Assays:
[1] = system: IL-2; assay: IL-2 mRNA expression in Jurkat cells by qRT-PCR, normalized with GAPDH; format: cell-based, human
Experimental: FIG. 1. Interferon gamma (IFN-γ) and interleukin (IL)-2 expression in human Jurkat cells following exposure to TRIP in vitro. Jurkat cells (2×10^6) were treated with different concentrations of TRIP as indicated for 24 hours. (A) IFN-γ and (B) IL-2 mRNA expression levels were detected by quantitative real-time polymerase chain reaction (qRT-PCR) and normalized with the expression of GAPDH. *p<0.05, **p<0.01, ***p<0.001.
FIG. 3. Effects of TRIP alone and in combination with trifluoperazine (TFP) or LY294002 (LY) on IFN-γ and IL-2 in human Jurkat cells in vitro. Jurkat cells (2×10^6) were pretreated with different concentrations of (A, B) TFP (0, 0.1, 1.0, 5.0, and 10.0 μM) and (C, D) LY294002 (0, 1, 5, 10, and 25 μM) for 1 hour, then incubated with medium containing 2.5 μM of TRIP for 24 hours. (A, C) IFN-γ and (B, D) IL-2 mRNA expression levels were detected by qRT-PCR and normalized with the expression of GAPDH. *p<0.05, **p<0.01, ***p<0.001.
FIG. 4. Effects of calmodulin, PI3K and MAPK inhibition on TRIP-induced expression of IFN-γ and IL-2 in human Jurkat cells in vitro. Jurkat cells (2×10^6) were pretreated with PD98059 (50 μM), TFP (10 μM) and LY294002 (25 μM) for 1 hour, then incubated with medium containing 2.5 μM of TRIP for 24 hours. (A) IFN-γ and (B) IL-2 mRNA expression levels were detected by qRT-PCR and normalized with the expression of GAPDH. **p<0.01, ***p<0.001, ****p<0.0001.
The potential immune regulating effects of TRIP and the possible mechanism(s) involved were determined with in vitro experiments examining the expression of T cell activating cytokines in human acute T cell leukemia Jurkat cells. The expression of IFN-γ and IL-2 RNA following exposure to increasing concentrations of TRIP (i.e., ospemifene) were first examined, followed by the effects of combining tamoxifen with TRIP on the expression of these cytokines. Different inhibitors of key T cell activation pathways—trifluoperazine (TFP), an inhibitor of calmodulin, LY294002, an inhibitor of PI3K, and PD98059, a MAPK inhibitor—in combination with TRIP were assessed for their effects on TRIP-induced expression of IFN-γ and IL-2 in Jurkat cells.
Jurkat cells (2.0×10^6) were treated with different concentrations of TRIP as indicated on the x-axis for 24 hours. (A) IFN-γ and (B) IL-2 mRNA expression levels were detected by quantitative real-time polymerase chain reaction (qRT-PCR) and normalized with the expression of GAPDH. *p<0.05, **p<0.01, ***p<0.001.
T cell activation requires multiple signals including PI3K, MAPK and calcium signaling pathways, and in order to identify the potential mechanism through which TRIP affects immune activation, Jurkat cells (2.0×10^6) were pretreated with different concentrations of TFP (0, 0.1, 1.0, 5.0 and 10.0 μM) (A, B) or LY294002 (0, 1, 5, 10 and 25 μM) (C, D) for one hour, then incubated with medium containing 2.5 μM TRIP for 24 hours. IFN-γ and IL-2 expression levels were detected by qRT-PCR and normalized with the expression of GAPDH. *p<0.05, **p<0.01, ***p<0.001.
Jurkat cells (2×10^6) were pretreated with PD98059 (50 μM), TFP (10 μM) or LY294002 (25 μM) for one hour, then incubated with medium containing 2.5 μM TRIP for 24 hours. (A) IFN-γ and (B) IL-2 mRNA expression levels were detected by qRT-PCR and normalized with expression of GAPDH. **p<0.01, ***p<0.001, ****p<0.0001.
The effects on T cell activation of different functional group substitutions on the TRIP chemical structure (Formula Ia) were examined by measuring the expression of IFN-γ and IL-2 RNA in human acute T cell leukemia Jurkat cells in vitro.
A strong increase is defined as a ≥50% increase compared to the control. A moderate increase is defined as a 25-49% increase compared to the control. A weak increase is defined as a 0-24% increase compared to the control. No effect is when there was no increase compared to the control.

[2] = system: regulatory T cell (Treg); conditions: chronic daily TRIP 50 mg/kg + two cycles of PV
Experimental: A total of 55 mixed-sex hMUC1.Tg C57BL/6 mice, starting at approximately five weeks of age, were treated with urethane as described above. Approximately six weeks after the last dose of urethane, mice were randomized into four treatment groups of approximately equal average weight: Control (n=22); TRIP (i.e., ospemifene) 50 mg/kg (n=16); tecemotide (L-BLP25) peptide vaccine (PV) (n=6); and TRIP+PV (n=11). At this time (Week 21), mice assigned to the […] began treatment with the first of two cycles consisting of eight weekly 10 μg doses each, with approximately four weeks between cycles. Cycle 1 was administered during Weeks 21-28, and Cycle 2 from Weeks 32-39. The PV was prepared and administered as described above. Mice in the TRIP groups began daily oral treatment in Week 31, which continued through the end of the study (approximately eight weeks of dosing). TRIP was prepared and administered as described above. Mice not assigned to TRIP treatment received daily oral doses of diluent. At the conclusion of the study, 48 h after the final dose of PV and 24 h after the last dose of TRIP, all mice were euthanized for the collection of serum and spleens, which were processed as described above for multiplex serum cytokine, Treg, and CTL analyses.

[3] = system: IFN-γ; conditions: at 20 weeks (30 days), 5-mg/kg TRIP dose level
Experimental: Average serum IFN-γ concentrations following daily oral TRIP treatment for 30 (Week 20), 60 (Week 24), and 90 (Week 28) days at the indicated doses (mg/kg). Serum was analyzed by multiplex immunoassay 24 hours after the final TRIP dose at each time point.
Following induction of lung cancer as described (Wurz G T. et al., J. Transl. Med., 11:64 (2013)), mice were randomized into four treatment groups: Control; and TRIP (i.e., ospemifene) 5, 25, and 50 mg/kg (n=12, all groups). TRIP and control solutions were orally administered by gavage according to treatment group. After 30 days of treatment (Week 20), a total of 16 mice, four from each treatment group, were euthanized, and whole blood was collected by cardiac puncture. The remaining mice continued daily TRIP treatments. An additional 16 mice, four from each treatment group, were euthanized following 60 (Week 24) and 90 (Week 28) days of treatment, and whole blood and livers were collected. Serum samples were subjected to multiplex cytokine analysis for TH1 (IL-2, IL-12, IFN-γ, TNF-α), TH2 (IL-4, IL-5, IL-10, IL-13) and inflammatory cytokines (MIP-1α, IP-10, MIG, IL-1β, IL-6, KC).

OCCOc1ccc(/C(=C(/CCCl)c2ccccc2)c2ccccc2)cc1 [TRIP, Z-2-[4-(4-chloro-1,2-diphenyl-but-1-enyl)-phenoxy]ethanol]
IL-2 RNA expression compared to control ([1]; Jurkat cells, different concentrations of TRIP, 24 hours, dose-dependent (FIG. 1B)): significantly induced | IL-2 Expression ([1]; mRNA in Jurkat cells in vitro, relative to control sample without TRIP compound): +++ (strong increase) | PV-induced immune response as assessed by Treg expression [2]: did not significantly affect | serum IFN-γ [3]: elevated
